Values after ≈ are worked out from the molar mass of the structure shown. Read-outs that look alike come from different tables or passages of the source. Peptide text beside a SMILES is read from it. * marks the point of attachment. Orn(α-tetramethylguanidino) = CN(C)C(=N[C@@H](CCCN)C(=O)*)N(C)C
Assays:
E. coli BW25113 = type: cell-based, Escherichia coli; settings: for MIC, BW: BW25113, 2 h
Protocol: (§1) The minimal inhibitory concentrations (MIC) were determined at least twice in triplicate using a liquid broth microdilution assay in sterile 96-well plates and a total volume of 100 μL per well. Aqueous peptide solutions were serially 2-fold diluted in 25% MHBII or 33% TSB medium in a volume of 50 µL. An overnight culture was diluted in 25% MHBII or 33% TSB medium to 1.5 × 10^7 CFU/mL, and an aliquot of 50 μL was added to each well. The final cell count in each well was 7.5 × 10^6 CFU/mL. […] The turbidity of each well was measured at a wavelength of 600 nm. The MIC was defined as the lowest peptide concentration where the turbidity was identical to medium only.

[1] = tested on: E. coli BL21 (DE3) RIL ribosome extract; settings: values published for E. coli BL21 (DE3) RIL ribosome extract; read-out: Kd (printed in column Ros); cited from earlier work
Source text: Table 2 Antibacterial activities, dissociation (Kd), and inhibition constants (Ki) of ribosome binding obtained for all PrAMPs included in the current study for E. coli strains BW25113 (BW) and Rosetta DE3 pLysS (Ros). | column: Kd [µmol/L] ** / Ros

[2] = tested on: E. coli BL21 (DE3) RIL ribosome extract; settings: values published for E. coli BL21 (DE3) RIL ribosome extract; read-out: Ki, cf-Api137; cited from earlier work
[3] = tested on: E. coli BL21 (DE3) RIL ribosome extract; settings: values published for E. coli BL21 (DE3) RIL ribosome extract; read-out: Ki, cf-Onc112; cited from earlier work
Source text: Table 2 Antibacterial activities, dissociation (Kd), and inhibition constants (Ki) of ribosome binding obtained for all PrAMPs included in the current study for E. coli strains BW25113 (BW) and Rosetta DE3 pLysS (Ros). | column: Ki [µmol/L] *** / cf-Onc112

E. coli BL21 (DE3) = type: cell-based, Escherichia coli; settings: BL21, 2 h
Protocol: as §1

in vitro = settings: E. coli BW25113 lysate
Protocol: Peptides (7.5 µg) were mixed with lysates of E. coli Rosetta pLysS or E. coli BW25113 (protein concentration ~0.5 g/L) and incubated on an orbital shaker (37 °C, 750 rpm). After 0, 4, 8 and 24 h, aliquots were taken in duplicate or triplicate, and trichloroacetic acid was added to achieve a final concentration of 3% (v/v). Samples were incubated on ice (10 min) and centrifuged (13,000× g, 5 min). The supernatant was neutralized with aqueous sodium hydroxide (1 mol/L) and stored at −20 °C. Samples were separated on an ACQUITY arc system (Waters GmbH, Eschborn, Germany) using a Jupiter C18 column (ID: 2 mm). Elution was achieved using a linear aqueous acetonitrile gradient containing 0.1% (v/v) formic acid. The absorbance was recorded on a 2489 UV/VIS detector at 214 nm (Waters GmbH), and mass spectra were acquired online with an ion trap mass spectrometer equipped with an electrospray ionization source (ESI-IT-MS, Esquire HCT, Bruker Daltonics, Billerica, MA, USA). Peptide recoveries and the corresponding metabolites were calculated based on the peak areas (UV) of the initial peptide peak area at 0 min.

[4] = tested on: E. coli BL21 (DE3) sbmA::Tn10^Cm + psbmA_A31G/G219T; type: cell-based, Escherichia coli
Protocol: (§2) The minimal inhibitory concentrations (MIC) were determined at least twice in triplicate using a liquid broth microdilution assay in sterile 96-well plates and a total volume of 100 μL per well. Aqueous peptide solutions were serially 2-fold diluted in 25% MHBII or 33% TSB medium in a volume of 50 µL. An overnight culture was diluted in 25% MHBII or 33% TSB medium to 1.5 × 10^7 CFU/mL, and an aliquot of 50 μL was added to each well. The final cell count in each well was 7.5 × 10^6 CFU/mL. The plates were incubated at 37 °C for 20 ± 2 h. The turbidity of each well was measured at a wavelength of 600 nm. The MIC was defined as the lowest peptide concentration where the turbidity was identical to medium only.
(§3) E. coli strain BL21(DE3) was randomly mutagenized by Tn10 insertion using the lambda phage lysate λNK1324 carrying a chloramphenicol resistance and grown on LB agar plates in the presence of chloramphenicol (15 µg/mL) at 30 °C overnight. The resistant colonies were transferred to 25% MHBII agar plates containing Api137 (32 or 64 µg/mL) and incubated again at 37 °C overnight. Genomic DNA was isolated by a Monarch® Genomic DNA purification kit (New England Biolabs, Frankfurt am Main, Germany) from the presumed double-resistant strains, and the sequences flanking the transposon insertion were determined by arbitrary primed PCR using arbitrary primer ARB6 and Tn10 transposon-specific primer IS10-R complementary to the IS10 element of Tn10 transposon. The first round of amplification included six cycles of denaturation (95 °C, 30 s), annealing (30 °C, 30 s), and extension (72 °C, 90 s), followed by 30 cycles of denaturation (95 °C, 30 s), annealing (45°C, 30 s), and extension (72 °C, 2 min), as well as a final extension (72 °C, 6 min). The second round of amplification used arbitrary primer ARB2 and primer IS10-R. The PCR consisted of 30 cycles of denaturation (95 °C, 30 s), annealing (52 °C, 30 s), and extension (72 °C, 2 min), followed by a final extension step (72 °C, 6 min). PCR products were purified with the NucleoSpin® Gel and a PCR cleanup kit (Macherey-Nagel, Düren, Germany) and sequenced using primer IS10-R (Eurofins MWG Operon, Ebersberg, Germany), and the corresponding protein was identified in a sequence database (UniProt and NCBI, 2021).

[5] = tested on: E. coli BL21 (DE3) sbmA::Tn10^Cm + psbmA; type: cell-based, Escherichia coli
Protocol: as §2, §3

[6] = tested on: E. coli BW25113 ΔsbmA +psbmA; type: cell-based, Escherichia coli
Protocol: as §2

E. coli BW25113 ΔsbmA = type: cell-based, Escherichia coli
Protocol: as §2

[7] = 25% MHBII containing IPTG (0.1 mmol/L)
[8] = 33% TSB containing IPTG (0.1 mmol/L)

SMILES | MIC, BW (E. coli BW25113) [µg/mL] | less active against BW25113 than against Rosetta DE3 pLysS (fold, from MIC) (E. coli BW25113; ratio of MIC values, 25% MHBII) | Kd [1] [nM] | Ki [2] [nM] | Ki [3] [nM] | MIC in the parent E. coli BL21 strain (E. coli BL21 (DE3)) [µg/mL] | MIC, 25% MHBII (E. coli BL21 (DE3)) [µg/mL] | MIC, 33% TSB (E. coli BL21 (DE3)) [µg/mL] | half-life (in vitro) [h] | MIC, 25% MHBII [4, 7] [µg/mL] | MIC, 33% TSB [4, 8] [µg/mL] | MIC, 25% MHBII [5, 7] [µg/mL] | MIC, 33% TSB [5, 8] [µg/mL] | MIC, 25% MHBII [6, 7] [µg/mL] | MIC, 33% TSB [6, 8] [µg/mL] | MIC, 25% MHBII (E. coli BW25113 ΔsbmA; [7]) [µg/mL] | MIC, 33% TSB (E. coli BW25113 ΔsbmA; [8]) [µg/mL]
CC[C@H](C)[C@H](NC(=O)[C@H](Cc1ccc(O)cc1)NC(=O)[C@@H](NC(=O)[C@@H]1CCCN1C(=O)[C@H](CCCNC(=N)N)NC(=O)[C@H](CC(N)=O)NC(=O)[C@H](CC(N)=O)NC(=O)[C@H](CCCN)N=C(N(C)C)N(C)C)C(C)C)C(=O)N1CCC[C@H]1C(=O)N[C@@H](CCCNC(=N)N)C(=O)N1CCC[C@H]1C(=O)N[C@@H](CCCNC(=N)N)C(=O)N1CCC[C@H]1C(=O)N1CCC[C@H]1C(=O)N[C@@H](Cc1c[nH]cn1)C(=O)N1CCC[C@H]1C(=O)N[C@@H](CCCNC(=N)N)C(=O)N[C@@H](CC(C)C)C(N)=O [Api88] ({Orn(α-tetramethylguanidino)}-NNRPVYIPRPRPPHPRL-NH2) | 2 (≈ 0.873 µM) | twofold | 1220 | 180 | 110 |  |  |  |  |  |  |  |  |  |  |  | 
CC[C@H](C)[C@H](NC(=O)[C@@H]1CCCN1C(=O)[C@H](CCCNC(=N)N)NC(=O)[C@H](CC(N)=O)NC(=O)[C@H](CC(N)=O)NC(=O)CN)C(=O)N[C@@H](Cc1ccc(O)cc1)C(=O)N[C@H](C(=O)N1CCC[C@H]1C(=O)N[C@@H](CCCNC(=N)N)C(=O)N1CCC[C@H]1C(=O)N[C@@H](CCCNC(=N)N)C(=O)N1CCC[C@H]1C(=O)N1CCC[C@H]1C(=O)N[C@@H](Cc1c[nH]cn1)C(=O)N1CCC[C@H]1C(=O)N[C@@H](CCCNC(=N)N)C(=O)N1CCC[C@H]1C(=O)N[C@H](C(=O)N[C@@H](CCCNC(=N)N)C(=O)N[C@H](C(=O)O)C(C)C)[C@@H](C)CC)[C@@H](C)CC [Api805] (H-GNNRPIYIPRPRPPHPRPIRV-OH; N-terminus assumed) |  |  |  |  |  | 2 to 4 | 4 (≈ 1.6 µM) | 2 (≈ 0.799 µM) | > 24 |  |  |  |  |  |  |  | 
CC[C@H](C)[C@H](NC(=O)[C@H](Cc1ccc(O)cc1)NC(=O)[C@@H](NC(=O)[C@@H]1CCCN1C(=O)[C@H](CCCNC(=N)N)NC(=O)[C@H](CC(N)=O)NC(=O)[C@H](CC(N)=O)NC(=O)[C@H](CCCN)N=C(N(C)C)N(C)C)C(C)C)C(=O)N1CCC[C@H]1C(=O)N[C@@H](CCCNC(=N)N)C(=O)N1CCC[C@H]1C(=O)N[C@@H](CCCNC(=N)N)C(=O)N1CCC[C@H]1C(=O)N1CCC[C@H]1C(=O)N[C@@H](Cc1c[nH]cn1)C(=O)N1CCC[C@H]1C(=O)N[C@@H](CCCNC(=N)N)C(=O)N[C@@H](CC(C)C)C(=O)O [Api137] ({Orn(α-tetramethylguanidino)}-NNRPVYIPRPRPPHPRL-OH) | 2 (≈ 0.873 µM) |  |  |  |  |  | 4 (≈ 1.75 µM) | 2 (≈ 0.873 µM) |  | 4 (≈ 1.75 µM) | 8 (≈ 3.49 µM) | 8 (≈ 3.49 µM) | 8 (≈ 3.49 µM) | 4 (≈ 1.75 µM) | 8 (≈ 3.49 µM) | 8 (≈ 3.49 µM) | 64 (≈ 27.9 µM)
